ChEMBL document CHEMBL1140713, “2,3-dihydro-6,7-dihydroxy-1H-isoindol-1-one-based HIV-1 integrase inhibitors” (J Med Chem, 2008)

Experiments:
[1] = target: T1, Human immunodeficiency virus type 1 integrase (Human immunodeficiency virus 1, UniProt Q7ZJM1); experiment: Inhibition of recombinant HIV1 integrase-mediated 3'-processing activity in presence of magnesium
[2] = target: T1, Human immunodeficiency virus type 1 integrase; experiment: Inhibition of recombinant HIV1 integrase strand transfer activity in presence of magnesium
[3] = target: T1, Human immunodeficiency virus type 1 integrase; experiment: Inhibition of recombinant HIV1 integrase strand transfer activity in presence of manganese
[4] = target: T1, Human immunodeficiency virus type 1 integrase; experiment: Inhibition of recombinant HIV1 integrase-mediated 3'-processing activity in presence of manganese
[5] = system: Human immunodeficiency virus 1; experiment: Antiviral activity against HIV1 in cell based assay; format: functional, organism-based

T1 sequence (Q7ZJM1 whole entry): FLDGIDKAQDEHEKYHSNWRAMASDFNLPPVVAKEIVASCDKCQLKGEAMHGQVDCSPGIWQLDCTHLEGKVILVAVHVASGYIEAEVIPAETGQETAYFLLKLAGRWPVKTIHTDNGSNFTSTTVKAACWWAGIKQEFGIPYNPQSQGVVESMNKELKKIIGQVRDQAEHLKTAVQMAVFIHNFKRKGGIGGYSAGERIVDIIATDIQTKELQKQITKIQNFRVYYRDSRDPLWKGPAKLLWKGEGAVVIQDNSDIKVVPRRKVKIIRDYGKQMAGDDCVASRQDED

Structure (SMILES)	IC50 [1] [µM]	IC50 [2] [µM]	IC50 [3] [µM]	IC50 [4] [µM]	EC50 [5] [µM]
O=C(NCCNC(=O)c1cccc(O)c1O)c1cccc(O)c1O	85	50			
O=C(N/N=C/c1cccc(O)c1O)c1cccc(O)c1O	61	54	1.3	11	
COc1cccc(C(=O)NNC(=O)c2cccc(OC)c2O)c1O	245	123	22	26	
O=C1c2c(ccc(O)c2O)CN1CCc1ccccc1	> 333	28			
COc1cccc(C(=O)N/N=C/c2ccc(F)cc2)c1O	> 333	> 333			
O=C1c2c(ccc(O)c2O)CN1N1Cc2ccc(O)c(O)c2S1(=O)=O	7	1.2			
COc1cccc(C(=O)NN)c1O	> 333	> 333	> 333	> 333	
COc1cccc(C(=O)NCc2ccc(F)cc2)c1O	> 333	> 333			
O=C(NCCCNC(=O)c1cccc(O)c1O)c1cccc(O)c1O	33	31			
O=C(NCc1ccc(F)cc1)c1cccc(O)c1O	> 333	108			> 30
O=C1c2ccc(O)c(O)c2CN1Cc1ccc(F)cc1	> 333	> 333			
O=C1c2c(ccc(O)c2O)CN1/N=C/c1ccc(F)cc1	> 333	> 333			
O=C1c2c(ccc(O)c2O)CN1N1C(=O)c2cc(O)c(O)cc2C1=O	6.7	0.81			
O=C(NN1Cc2ccc(O)c(O)c2C1=O)c1cccc(O)c1O	> 333	6			
O=C1c2c(ccc(O)c2O)CN1NS(=O)(=O)c1ccc(F)cc1	69	21			
O=C1c2c(ccc(O)c2O)CN1N1C(=O)c2cccc(O)c2C1=O	42	11			
COc1cccc(C(=O)NNC(=O)c2cccc(O)c2O)c1O	138	44	9	11	
O=C1c2c(ccc(O)c2O)CN1N1C(=O)c2ccc(O)c(O)c2C1=O	78	0.6			
O=C1c2c(ccc(O)c2O)CN1Cc1ccc(F)c(Cl)c1	13	0.16			
O=C(NNC(=O)c1cccc(O)c1O)c1cccc(O)c1O	6.9	1.6	5	8.9	1.67
COc1cccc(C(=O)NNC(=O)c2cc3ccccc3cc2O)c1O	> 333	> 333	8	12	
O=C(NNC(=O)c1cccc(O)c1O)c1ccccc1O	> 333	> 333	0.5	2.8	4.8

Structure (SMILES)	IC50 [1] [µM]	IC50 [2] [µM]	IC50 [3] [µM]	IC50 [4] [µM]	EC50 [5] [µM]
O=C(NNC(=O)c1ccccc1O)c1ccccc1O	> 333	> 333	1.8	3.6	2.2
O=C(NN1Cc2ccc(O)c(O)c2C1=O)c1ccccc1	> 333	129			
NNC(=O)c1cccc(O)c1O	> 333	> 333	111	> 333	
O=C1c2c(ccc(O)c2O)CN1N(S(=O)(=O)c1ccc(F)cc1)S(=O)(=O)c1ccc(F)cc1	> 333	33			
O=C1c2c(ccc(O)c2O)CN1Cc1ccccc1	> 333	12.3			0.68
O=C1c2c(ccc(O)c2O)CN1N1C(=O)c2ccccc2C1=O	> 333	> 333			
O=C1c2c(ccc(O)c2O)CN1N1C(=O)c2ccc(F)cc2C1=O	186	53			
O=C(NNC(=O)c1cccc(O)c1O)c1cc2ccccc2cc1O	72	32	16	19	
O=C(NN1Cc2ccc(O)c(O)c2C1=O)c1ccc(F)cc1	> 333	170			
O=C(NNC(=O)c1cccc(O)c1O)c1cccnc1	> 333	> 333	112	> 333	
O=C1c2c(ccc(O)c2O)CN1Cc1cccc(Cc2ccccc2)c1	> 333	172			
O=C1c2c(ccc(O)c2O)CN1/N=C/c1cccc(O)c1O	87	54			
O=C1c2c(ccc(O)c2O)CN1Cc1cccc(CBr)c1	37	13			
O=C1c2c(ccc(O)c2O)CN1Cc1cccc2ccccc12	61	0.74			
O=C1c2c(ccc(O)c2O)CN1N(S(=O)(=O)c1ccc(O)c(O)c1)S(=O)(=O)c1ccc(O)c(O)c1	1.6	0.21			
O=C1c2c(ccc(O)c2O)CN1Cc1ccc(F)cc1	282	10			0.77
COc1cccc(C(=O)NNC(=O)c2cccnc2)c1O	> 333	> 333	> 333	> 333	
COc1cccc(/C=N/NC(=O)c2cccc(O)c2O)c1OC	112	68	18	> 333	
O=C(NN1Cc2ccc(O)c(O)c2C1=O)c1ccccc1O	> 333	293			
O=C1c2c(ccc(O)c2O)CN1N1Cc2ccc(O)c(O)c2C1=O	124	41			
O=C1c2cccc(O)c2C(=O)N1Cc1ccc(F)cc1	> 333	> 333			
